Test results published in paper PMC6913647, “Novel sulphonamides incorporating triazene moieties show powerful carbonic anhydrase I and II inhibitory properties” (Journal of Enzyme Inhibition and Medicinal Chemistry, 2019).
Read-outs that look alike come from different tables or passages of the source.

How the values were obtained:
hCA I = biological target: T1, hCA I (Homo sapiens, UniProt P00915); test: esterase inhibition assay; type: biochemical
T1 construct: gene CA1; native enzyme purified from human blood; cytosolic isoform
T1 sequence (P00915 2-261): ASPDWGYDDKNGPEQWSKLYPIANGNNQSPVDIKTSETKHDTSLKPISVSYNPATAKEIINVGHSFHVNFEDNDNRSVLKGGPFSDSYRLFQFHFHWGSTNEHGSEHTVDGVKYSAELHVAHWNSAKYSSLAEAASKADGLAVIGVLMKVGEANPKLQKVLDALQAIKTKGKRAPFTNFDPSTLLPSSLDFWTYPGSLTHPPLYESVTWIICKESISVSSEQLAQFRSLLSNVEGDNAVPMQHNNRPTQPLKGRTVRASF
Text: esterase inhibition assay on hCA I

hCA II = biological target: T2, hCA II (Homo sapiens, UniProt P00918); test: esterase inhibition assay; type: biochemical
T2 construct: gene CA2; native enzyme purified from human blood; cytosolic isoform
Text: esterase inhibition assay on hCA II

[1] = substrate 4-nitrophenyl acetate

Compound	Ki (hCA I)	Ki (hCA II)	Ki (hCA I; [1])	Ki (hCA II; [1])
NS(=O)(=O)c1cccc(N=NNc2ccccc2)c1 [compound 1, 3–(3-Pheynltriaz-1-en-1-yl)benzenesulfonamide]	28 ± 6 nM	18 ± 5 nM		
NS(=O)(=O)c1cccc(N=NNc2ccc(F)cc2)c1 [compound 2, 3-(3-(4-Fluorophenyl)triaz-1-en-1-yl) benzenesulfonamide]		21 ± 9 nM	21 ± 4 nM	
NS(=O)(=O)c1cccc(N=NNc2ccc(Br)cc2)c1 [compound 3, 3-(3-(4-Bromophenyl)triaz-1-en-1-yl) benzenesulfonamide]	57 ± 3 nM	19 ± 4 nM		
CCOc1ccc(NN=Nc2cccc(S(N)(=O)=O)c2)cc1 [compound 4, 3-(3-(4-Ethoxyphenyl)triaz-1-en-1-yl) benzenesulfonamide]	38 ± 4 nM			16 ± 6 nM
COc1ccc(/N=N/Nc2cccc(S(N)(=O)=O)c2)cc1 [compound 5, 3-(3-(4-Methoxyphenyl)triaz-1-en-1-yl) benzenesulfonamide]	42 ± 8 nM	21 ± 4 nM		
CCc1ccc(NN=Nc2cccc(S(N)(=O)=O)c2)cc1 [compound 6, 3-(3-(4-Ethylphenyl)triaz-1-en-1-yl) benzenesulfonamide]	49 ± 2 nM	16 ± 2 nM		
NS(=O)(=O)c1cccc(N=NNc2cccc(Cl)c2)c1 [compound 7, 3-(3-(3-Chlorophenyl)triaz-1-en-1-yl) benzenesulfonamide]	53 ± 15 nM	22 ± 6 nM		
NS(=O)(=O)c1cccc(N=NNc2cccc(F)c2)c1 [compound 8, 3-(3-(3-Fluorophenyl)triaz-1-en-1-yl) benzenesulfonamide]	36 ± 3 nM	28 ± 6 nM		
COc1cccc(NN=Nc2cccc(S(N)(=O)=O)c2)c1 [compound 9, 3-(3-(3-Methoxyphenyl)triaz-1-en-1-yl) benzenesulfonamide]	33 ± 5 nM	23 ± 2 nM		
NS(=O)(=O)c1cccc(N=NNc2ccccc2Cl)c1 [compound 10, 3-(3-(2-Chlorophenyl)triaz-1-en-1-yl) benzenesulfonamide]	46 ± 12 nM	20 ± 5 nM		
NS(=O)(=O)c1cccc(N=NNc2ccccc2F)c1 [compound 11, 3-(3-(2-Fluorophenyl)triaz-1-en-1-yl) benzenesulfonamide]	72 ± 2 nM	33 ± 9 nM		
NS(=O)(=O)c1cccc(N=NNc2ccccc2Br)c1 [compound 12, 3-(3-(2-Bromophenyl)triaz-1-en-1-yl) benzenesulfonamide]	61 ± 1 nM	40 ± 2 nM		
